Data as given in US10259817B2, “Crystal (6S,9aS)-N-benzyl-8-({6-[3-(4-ethylpiperazin-1-yl)azetidin-1-yl]pyridin-2-yl}methyl)-6-(2-fluoro-4-hydroxybenzyl)-4,7-dioxo-2-(prop-2-en-1-yl)hexahydro-2H-pyrazino[2,1-c][1,2,4]triazine-1(6H)-carboxamide” (Eisai R&D Management Co., Ltd., priority 2015, dated 2019).

Assays:
[1] = system: human chronic myologenous leukemia cell strain K562; details: day 28; Dasatinib 5 mg/kg alone, oral qd 5 days + 2-day holiday, two cycles
Source text: A preparation of a human chronic myologenous leukemia cell strain K562 (which had been cultured in a RPMI-1640 liquid culture medium supplemented with 10% FBS and penicillin/streptomycin) which was so prepared with PBS (Wako Pure Chemical Industries, Ltd.; Cat#045-29795) that the density became 2×10^8 cells/mL was mixed with [sequence] (BD Biosicence, Cat#: 354234) at a mixing ratio of 1:1, thereby preparing a cell suspension having a density of 1×10^8 cells/mL. The resulting cell suspension was transplanted subcutaneously into the right flank of each of six-week-old nude mice (CAnN.Cg-Foxn1nu/CrlCrlj, female, Charles River Laboratories Japan) at a dose of 100 μL. Seven days after the transplantation, the shorter diameter and the longer diameter of a tumor were measured using an electronic digital caliper (Digimatic™ Caliper, Mitutoyo Corporation) to calculate the tumor volume in accordance with the following equation. Tumor volume (mm^3)=(longer diameter (mm))×(shorter diameter (mm))×(shorter diameter (mm))/2
The mice were grouped in such a manner that the average value of the tumor volumes in mice in a group, which were determined on the basis of the tumor volume on the first day of the administration. […]

Wnt signal = assay: Detection of Wnt signal (TOPglow luciferase reporter, LiCl-stimulated HEK293 clone); assay type: cell-based; details: Homo sapiens; HEK293 pNeo-TOP clone, LiCl added, luciferase emission; read-out: IC50, concentration required for inhibiting the Wnt signal activity by 50%
Source text: The plasmid pNeo-TOP was introduced into human fetus-derived renal cell strain HEK293, then a compound was selected using G418, and then a cell clone strain was established by a limiting dilution method. The cell clone strain was subjected to a Wnt signal detection test.
The cell clone strain was subcultured in a D-MEM glucose-rich culture medium (Wako Pure Chemical Industries, Ltd.) containing 10% FBS, and cells in a growth phase were used in the test. Cells were collected using trypsin-EDTA, the number of the cells was counted, and then the cells were suspended in a D-MEM glucose-rich culture medium containing 10% FBS so that the number of cells became 2×10^5 cells/mL. The cell suspension was added to a 96-well cell culture plate (Greiner Bio-One Co., Ltd., product number: 655083) in an amount of 0.1 mL/well and then cultured overnight in a 5% CO2 incubator (37° C.). After the culturing, a substance to be tested, which was dissolved in DMSO, was diluted with a D-MEM glucose-rich culture medium containing 10% of FBS and 80 mM of LiCl to produce a sample solution. The sample solution (0.1 mL) was added to each well and then cultured in a 5% CO2 incubator (37° C.) overnight. […] The plate was put on a plate mixer for several seconds, and then the emission of light from each well was measured using a EnVision™ Multilabel plate reader (PerkinElmer Co., Ltd.). […]

IC50 (Wnt signal) | SMILES | the number of individuals in which a tumor was not observed by visual judgment/total number of administered individuals [1]
– | Cc1nc(Nc2ncc(C(=O)Nc3c(C)cccc3Cl)s2)cc(N2CCN(CCO)CC2)n1 [Dasatinib] | 0/9
60 nM | C=CCN1CC(=O)N2[C@@H](Cc3ccc(O)cc3F)C(=O)N(Cc3cccc(N4CC(N5CCN(CC)CC5)C4)n3)C[C@@H]2N1C(=O)NCc1ccccc1 [Example 1, (6S,9aS)-N-benzyl-8-({6-[3-(4-ethylpiperazin-1-yl)azetidin-1-yl]pyridin-2-yl}methyl)-6-(2-fluoro-4-hydroxybenzyl)-4,7-dioxo-2-(prop-2-en-1-yl)hexahydro-2H-pyrazino[2,1-c][1,2,4]triazine-1(6H)-carboxamide] | –
